Experimental data as given in US8895522B2, “Composition and method for the prevention, treatment and/or alleviation of an inflammatory disease” (Index Pharmaceuticals AB, priority 2005, dated 2014).
“Also recorded” adds a separate entry of the source. In the oligonucleotide strings, read from the 5' end, every base follows the letter of its sugar. An asterisk marks phosphorothioate; unmarked linkages are phosphodiester. Other units and linkages are bracketed, terminal groups are in braces. A string of capitals states the bases alone. d = 2'-deoxy (DNA)

Tests used:
Assay type in all cases: cell-based
[1] = tested on: human PBMC; test: Induction of IFN-gamma from healthy human PBMC (ELISpot); conditions: PBMC from 7 healthy individuals, 48 hours, FIG. 12
Description: (§1) Whole blood was obtained from healthy blood donors. PBMCs were prepared from 30 ml whole blood according to the following protocol:
(§2) 30 ml blood was transferred directly into heparinized tubes. All blood was transferred into one 50 ml Falcon tube and PBS added up to 50 ml. 15 ml Ficoll (17-1440-03, obtained from Amersham Bioscience AB, Uppsala) was then added into two falcon tubes (50 ml). The PBS-treated blood was then carefully added on the top of to Ficoll, 25 ml to each tube. The tubes were then centrifuged 25 min at 1700 RPM at RT (20° C.).
RPMIc medium was prepared under sterile conditions, using a 0.22 uM filter. (RPMIc denotes a RPMI 1640 culture medium (R0883, Sigma) supplemented with 5% heat-inactivated (56° C.,1 h) FCS 1.5 mM L-glutamine (G7513, Sigma), 100 U/ml penicillin and 100 ug/ml streptomycin, PEST (P0781, Sigma), hepes (H0887, Sigma), and gentamycin (G1272, Sigma)). […]
The cells were counted and left in PBS, then centrifuged at 1200 RPM, 10 min. Medium was then added to obtain the concentration of interest, and the cells counted (16 squares)×3. The mean value was calculated and multiplied with the dilution factor×10^4=cells/ml. […]
Elispot assays where performed according to the manufactures recommended guidelines (MabTech) and the plates were analyzed using an AID ELISpot reader system (Autoimmun Diagnostika GmbH, Strassberg, Germany). […]

[2] = tested on: human PBMC; test: Induction of IFN-alpha from healthy human PBMC (ELISpot); conditions: PBMC from 10 healthy individuals, 48 hours
Description: as §1, §2
RPMIc medium was prepared under sterile conditions, using a 0.22 uM filter. (RPMIc denotes a RPMI 1640 culture medium (R0883, Sigma) supplemented with 5% heat-inactivated (56° C.,1 h) FCS 1.5 mM L-glutamine (G7513, Sigma), 100 U/ml penicillin and 100 ug/ml streptomycin, PEST (P0781, Sigma), hepes (H0887, Sigma), and gentamycin (G1272, Sigma)).
The interphase was carefully pipetted from the two tubes into 2x 50mi Falcon tubes. PBS was added up to 50 ml in each tube, and the tubes centrifuged for 10 min at 1700 RPM (4° C.).
The supernatant was discarded, and PBS added to 30 ml, whereupon the tubes were centrifuged at 10 min at 1500 RPM (4° C.). Again, the supernatant was discarded, 10 ml PBS added, and the pellets from the two falcon tubes pooled.
The cells were counted and left in PBS, then centrifuged at 1200 RPM, 10 min. Medium was then added to obtain the concentration of interest, and the cells counted (16 squares)×3. The mean value was calculated and multiplied with the dilution factor×10^4=cells/ml. Diluting the cells to 10 million/ml will result in 500.000 cells/50 ul medium, 6 million/ml will be 300.000/50 ul medium.
Elispot assays where performed according to the manufactures recommended guidelines (MabTech) and the plates were analyzed using an AID ELISpot reader system (Autoimmun Diagnostika GmbH, Strassberg, Germany).
For this assay again 500,000 PBMC cells per well, derived from healthy human blood were incubated for 48 hours in the presence of the different oligonucleotides. Specifically, SEQ.ID.NO 1, SEQ.ID.NO 2, and SEQ.ID.NO 8. Following incubation, the wells were developed according to the kit suppliers recommendations and the average number of positive cells producing IFN-alpha per well were determined using an AID ELISpot reader.

[3] = tested on: human PBMC; test: IL-10 induction from healthy human PBMC by SEQ.ID.NO 1 after dexamethasone pre-incubation (ELISA)
Description: ELISA assays where performed according to the manufactures recommended guidelines (R&D systems). Plates were analyzed using AID ELISpot reader system (Autoimmun Diagnostika GmbH, Strassberg Germany).
For this assay again 500,000 PBMC cells per well, derived from blood from healthy human donors, were incubated for 12 hours in the presence of various concentrations of dexamethasone, after which, the cells were washed and fresh medium as added. The cells were then allowed to further incubate in the presence of either 25 uM or 100 uM of SEQ.ID.NO 1 for an additional 24 hours after which levels of IL-10 were measured using a commercial available IL-10 ELISA kit.

5′-G*G*A*ACAGTTCGTCCAT*G*G*C-3′ (DNA dG*dG*dA*dAdCdAdGdTdTdCdGdTdCdCdAdT*dG*dG*dC) [SEQ.ID.NO 1, (Hu p65)AS, CpG-containing ODN; * marks phosphorothioate linkage, others phosphodiester]
concentration at which induction of IFN-gamma becomes apparent [1]: around 25 uM | concentration at which induction of IFN-alpha starts / is apparent [2]: 1 µM | induction of IFN-alpha producing cells ([2]; FIG. 13): clear inducing potential | IL-10 production ([3]; 25 uM SEQ.ID.NO 1 for 24 hours after 12 hours prior incubation with dexamethasone): little production of IL-10 | IL-10 production ([3]; 100 uM SEQ.ID.NO 1 for 24 hours after 12 hours prior incubation with dexamethasone (most apparent at 10^−10 M)): dramatic increase in the amount of IL-10 produced; also recorded: levels higher than either mono treatment alone
